target: T1, PDE4B2 (Homo sapiens, UniProt Q07343); experiment: Inhibition of PDE4B2 activity in a modified SPA (scintillation proximity assay) test; assay type: biochemical; details: recombinant PDE4B2 (SF21 cell supernatant), [3H]cAMP SPA, 0.5 μM cAMP, 37° C.; value given as a range for the group of listed compounds; read-out: Inhibition of the PDE4 activity, −log IC50 (converted)
T1 construct: made in house; host or cells: SF21 insect cells (baculovirus; virus prepared in SF9 cells)
Procedure: The PDE4B2 (GB no. M97515) was a gift of Prof. M. Conti (Stanford University, USA). It was amplified from the original plasmid (pCMV5) via PCR with primers Rb9 (5′-[…]-3′) and Rb10 (5′-[…]-3′) and cloned into the pCR-Bac vector (Invitrogen, Groningen, NL).
The recombinant baculovirus was prepared by means of homologous recombination in SF9 insect cells. The expression plasmid was cotransfected with Bac-N-Blue (Invitrogen, Groningen, NL) or Baculo-Gold DNA (Pharmingen, Hamburg) using a standard protocol (Pharmingen, Hamburg). Wt virus-free recombinant virus supernatant was selected using plaque assay methods. After that, high-titre virus supernatant was prepared by amplifying 3 times. PDE was expressed in SF21 cells by infecting 2×10^6 cells/ml with an MOI (multiplicity of infection) between 1 and 10 in serum-free SF900 medium (Life Technologies, Paisley, UK). The cells were cultured at 28° C. for 48-72 hours, after which they were pelleted for 5-10 min at 1000 g and 4° C.
The SF21 insect cells were resuspended, at a concentration of approx. 10^7 cells/ml, in ice-cold (4° C.) homogenization buffer (20 mM Tris, pH 8.2, containing the following additions: 140 mM NaCl, 3.8 mM KCl, 1 mM EGTA, 1 mM MgCl2, 10 mM P-mercaptoethanol, 2 mM benzamidine, 0.4 mM Pefablock, 10 μM leupeptin, 10 μM pepstatin A, 5 μM trypsin inhibitor) and disrupted by ultrasonication. The homogenate was then centrifuged for 10 min at 1000×g and the supernatant was stored at −80° C. until subsequent use (see below). The protein content was determined by the Bradford method (BioRad, Munich) using BSA as the standard.
PDE4B2 activity is inhibited by the said compounds in a modified SPA (scintillation proximity assay) test, supplied by Amersham Biosciences (see procedural instructions “phosphodiesterase [3H]cAMP SPA enzyme assay, code TRKQ 7090”), carried out in 96-well microtitre plates (MTP's). The test volume is 100 μl and contains 20 mM Tris buffer (pH 7.4), 0.1 mg of BSA (bovine serum albumin)/ml, 5 mM Mg^2+, 0.5 μM cAMP (including about 50,000 cpm of [3H]cAMP), 1 μl of the respective substance dilution in DMSO and sufficient recombinant PDE (1000×g supernatant, see above) to ensure that 10-20% of the CAMP is converted under the said experimental conditions. […] After a preincubation of 5 min at 37° C., the reaction is started by adding the substrate (cAMP) and the assay is incubated for a further 15 min; after that, it is stopped by adding SPA beads (50 μl). In accordance with the manufacturer's instructions, the SPA beads had previously been resuspended in water, but were then diluted 1:3 (v/v) in water; the diluted solution also contains 3 mM IBMX to ensure a complete PDE activity stop. After the beads have been sedimented (>30 min), the MTP's are analyzed in commercially available luminescence detection devices. The corresponding IC50 values of the compounds for the inhibition of PDE activity are determined from the concentration-effect curves by means of non-linear regression.

T1 sequence (Q07343 1-564 isoform Q07343-2): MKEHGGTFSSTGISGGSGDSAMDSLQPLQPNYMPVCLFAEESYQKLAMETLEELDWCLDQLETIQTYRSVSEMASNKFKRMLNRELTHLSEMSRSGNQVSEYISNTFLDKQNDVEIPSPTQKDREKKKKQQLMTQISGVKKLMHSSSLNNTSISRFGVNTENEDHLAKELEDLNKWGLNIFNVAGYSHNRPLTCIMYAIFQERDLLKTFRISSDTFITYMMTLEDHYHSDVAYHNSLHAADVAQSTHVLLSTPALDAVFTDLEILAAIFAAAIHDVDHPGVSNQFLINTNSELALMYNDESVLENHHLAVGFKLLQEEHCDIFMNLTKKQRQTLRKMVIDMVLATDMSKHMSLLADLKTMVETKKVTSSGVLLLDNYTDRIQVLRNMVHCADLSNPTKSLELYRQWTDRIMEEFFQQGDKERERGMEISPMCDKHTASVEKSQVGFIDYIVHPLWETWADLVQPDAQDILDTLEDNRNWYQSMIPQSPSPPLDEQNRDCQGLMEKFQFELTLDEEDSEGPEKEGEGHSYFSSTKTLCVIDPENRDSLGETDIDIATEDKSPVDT

| SMILES | IC50 |
| --- | --- |
| CCOc1cc2c(cc1OC)C(c1ccc(N3CCN(C)CC3)cc1)=N[C@@H]1CC[C@@H](O)C[C@H]21 (racemic) [Compound 2, (2RS,4aRS,10bRS)-9-Ethoxy-8-methoxy-6-[4-(4-methyl-piperazin-1-yl)-phenyl]-1,2,3,4,4a,10b-hexahydro-phenanthridin-2-ol] | 0.724 to 7.41 nM |
| CCOc1cc2c(cc1OC)C(c1ccc(-c3nc(OC)cc(OC)n3)cc1)=N[C@@H]1CC[C@@H](O)C[C@H]21 (racemic) [Compound 3, (2RS,4aRS,10bRS)-6-[4-(4,6-Dimethoxy-pyrimidin-2-yl)-phenyl]-9-ethoxy-8-methoxy-1,2,3,4,4a,10b-hexahydro-phenanthridin-2-ol] | 0.724 to 7.41 nM |
| CCOc1cc2c(cc1OC)C(c1ccc(N3CCOCC3)cc1)=N[C@@H]1CC[C@@H](O)C[C@H]21 (racemic) [Compound 5, (2RS,4aRS,10bRS)-9-Ethoxy-8-methoxy-6-(4-morpholin-4-yl-phenyl)-1,2,3,4,4a,10b-hexahydro-phenanthridin-2-ol] | 0.724 to 7.41 nM |
| CCOc1cc2c(cc1OC)C(c1ccc(-n3ccnc3)cc1)=N[C@@H]1CC[C@@H](O)C[C@H]21 (racemic) [Compound 1, (2RS,4aRS,10bRS)-9-Ethoxy-6-(4-imidazol-1 yl-phenyl)-8-methoxy-1,2,3,4,4a,10b-hexahydro-phenanthridin-2-ol] | 0.724 to 7.41 nM |

Other lines, results leading:

| IC50 | SMILES |
| --- | --- |
| 0.724 to 7.41 nM | CCCn1nnc(-c2ccc(C3=N[C@@H]4CC[C@@H](O)C[C@@H]4c4cc(OC)c(OC)cc43)cc2)n1 (racemic) [Compound 6, (2RS,4aRS,10bRS)-8,9-Dimethoxy-6-[4-(2-propyl-2H-tetrazol-5-yl)-phenyl]-1,2,3,4,4a,10b-hexahydro-phenanthridin-2-ol] |
| 0.724 to 7.41 nM | CCn1nnc(-c2ccc(C3=N[C@@H]4CC[C@@H](O)C[C@@H]4c4cc(OC(F)F)c(OC)cc43)cc2)n1 (racemic) [Compound 8, (2RS,4aRS,10bRS)-9-(1,1-Difluoro-methoxy)-6-[4-(2-ethyl-2H-tetrazol-5-yl)-phenyl]-8-methoxy-1,2,3,4,4a,10b-hexahydro-phenanthridin-2ol] |
| 0.724 to 7.41 nM | CCn1nnc(-c2ccc(C3=N[C@@H]4CC[C@@H](O)C[C@@H]4c4cc(OC)c(OC(F)F)cc43)cc2)n1 (racemic) [Compound 7, (2RS,4aRS,10bRS)-8-(1,1-Difluoro-methoxy)-6-[4-(2ethyl-2H-tetrazol-5-yl)-phenyl]-9-methoxy-1,2,3,4,4a,10b-hexahydro-phenanthridin-2-ol] |
| 0.724 to 7.41 nM | CCOc1cc2c(cc1OC)C(c1ccc(-c3csnn3)cc1)=N[C@@H]1CC[C@@H](O)C[C@H]21 (racemic) [Compound 4, (2RS,4aRS,10bRS)-9-Ethoxy-8-methoxy-6-(4-[1,2,3]thiadiazol-4-yl-phenyl)-1,2,3,4,4a,10b-hexahydro-phenanthridin-2ol] |

Source: patent US20070191413A1, “Novel heterocycle-substituted hydroxy-6-phenylphenanthridines and their use as pde4 inhibitors” (Atlanta Pharma AG, priority 2004, published 2007)
